Measured values from patent publication US11800867B2, “Methods of repelling biting arthropods, reducing pathogen spread and treating arthropod infestation” (priority 2016, dated 2023).

Assays:
[1] = humans; compound found in bergamot and citrus essential oils; cited from earlier work
[2] = test system: female Culex quinquefasciatus mosquitoes; test: In vitro membrane feeder repellency assay, probing of treated collagen membranes (Example 2); assay type: in vivo; settings: 20% DEET in ethanol, 25 μL on collagen membrane; twenty minutes; average ± SE, n = 5
Excerpt: (§1) A laboratory trial was required to evaluate the repellency of 1% Nootkatone against female Aedes aegypti, Culex quinquefasciatus, and Anopheles quadrimaculatus mosquitoes using an in vitro method.
(§2) Female adult laboratory reared Aedes aegypti, Culex quinquefasciatus, and Anopheles quadrimaculatus mosquitoes (susceptible) were obtained from Benzon Research in Carlisle, Pa. 250 mosquitoes were used per replicate (5 replicates per test, per species). Adult mosquitoes were 3-8 days old.
(§3) Nootkatone was diluted in ethanol and acetone (note that Nootkatone diluted in acetone was not tested against An. quadrimaculatus). A positive control consisting of 20% DEET in ethanol was prepared using stock solutions. Negative controls consisted of no treatment, and ethanol-only treatment.
(§4) The treatments were applied directly to prepared collagen membranes by pipetting 25 μL of the appropriate substance onto a membrane and spreading it evenly with the tip of the pipette.
(§5) Exposure container. A 30.5 cm×30.5 cm×30.5 cm rigid plastic frame supported by four, 4 cm high legs, with a sleeved entry on one side and a sliding door on the bottom.
(§6) Membrane feeder. Five wells (3 cm in diameter×8 mm in depth) in line on a hollow plastic block (6 cm wide×22 cm long×3 cm deep), which fits through the sliding door in the bottom of the exposure container. Hoses attached to each side of the block circulate heated water that is pumped from a water bath. The sliding door in the bottom of the exposure container covers and uncovers the wells in the membrane feeder, allowing mosquitoes to access the wells.
(§7) Test set-up. The membrane feeder was connected to a heated water bath, and warm water passed through the feeder via a circulating pump so that the wells were warmed to 89-95° F. Seventy-two (72) mg of ATP (disodium salt) were added to 26 mL of warmed citrated bovine blood, which was poured into the wells until they were completely full.
(§8) The collagen membranes were placed on vacuum greased wax paper for treatment. They were then treated as described above and left for five minutes to dry. After they dried, the membranes were placed over each of the wells (using vacuum grease as an adhesive), completely covering the blood.
(§9) Exposure to mosquitoes. The mosquitoes were released into the exposure container just prior to exposure to the membranes. The exposure container was then placed on the membrane feeder and the sliding door opened, allowing the mosquitoes to access the wells. The number of mosquitoes probing each membrane was recorded every two minutes for twenty minutes.
(§10) The above procedures were repeated until five replicates were completed. A new batch of 250 female mosquitoes and fresh blood were used for each replicate, and the wells were cleaned in between replicates. The position of the treatments was rotated for each replicate, so that each treatment was tested on each of the five wells.
(§11) Percent repellency was calculated for each replicate using the total number of probes with the following formula:
(§12) [formula] • where C=the total number of probes on the untreated well • and T=the total number of probes on the treated well
(§13) Average percent repellency and standard error were then calculated across all five replicates. Shapiro-Wilks tests were conducted to determine the normality of the data, based on total number of probes per replicate. Depending on normality, student t-tests (with concurrent F-tests for variance) or Mann-Whitney tests were then used to determine significance between the treatments.

[3] = test system: female Aedes aegypti mosquitoes; test: as above; assay type: in vivo; settings: 20% DEET in ethanol, 25 μL on collagen membrane; twenty minutes; average ± SE, n = 5
Excerpt: as §1, §2, §3, §4, §5, §6, §7, §8, §9, §10, §11, §12, §13

[4] = test system: female Anopheles quadrimaculatus mosquitoes; test: as above; assay type: in vivo; settings: 20% DEET in ethanol, 25 μL on collagen membrane; twenty minutes; average ± SE, n = 5
Excerpt: as §1, §2, §3, §4, §5, §6, §7, §8, §9, §10, §11, §12, §13

Compound	Phototoxicity [1]	Percent repellency [2]	Percent repellency [3]	Percent repellency [4]
COc1c2ccoc2cc2oc(=O)ccc12 [Bergapten, 5-methoxypsoralen]	causes phototoxicity in humans			
CCN(CC)C(=O)c1cccc(C)c1 [DEET, N,N-Diethyl-meta-toluamide, reference compound]		95.9 ± 4.1%	99.4 ± 0.6%	100.0 ± 0.0%
